The results in this text go back to patent US8158647B2, “Substituted pyrrolopyridines and pyrazolopyridines as kinase modulators” (SGX Pharmaceuticals, Inc., priority 2007, dated 2012).

Assay [1] deals with T1, ABL P210WT BAF3 cells (Homo sapiens, UniProt P00519).
T1 construct: ABL P210WT BAF3; fused on or other part: P11274 (Breakpoint cluster region protein)
The assay is described as follows: 96-well XTT cell survival assay, BaF3 ABL P210WT. The following applies: ABL P210 WT, 72 hours, read-out: CELL BIO ABL P210WT BAF3 XTT (IC50). Type of assay: cell-based. The method, then: (§1) MV4-11 and THP cells were maintained in Iscove's Modified Dulbecco's Medium supplemented with 10% fetal bovine serum (FBS) and penicillin/streptomycin, Ba/F3 cells were maintained in RPMI 1640 supplemented with 10% FBS, penicillin/streptomycin and 5 ng/ml recombinant mouse IL-3.
(§2) Compounds were tested in the following assays in duplicate.
(§3) 96-well XTT assay: Cells (e.g. BaF3 315I, M3511, or E255K cells) were grown in growth media containing various concentrations of compounds (duplicates) on a 96-well plate for 72 hours at 37° C. The starting cell number was 5000-8000 cells per well and volume was 120 μl. At the end of the 72-hour incubation, 40 μl of XTT labeling mixture (50:1 solution of sodium 3′-[1-(phenylamino-carbonyl)-3,4-tetrazolium]-bis(4-methoxy-6-nitro) benzene sulfonic acid hydrate and Electron-coupling reagent: PMS (N-methyl dibenzopyrazine methyl sulfate) were added to each well of the plate. After an additional 2-6 hours of incubation at 37° C., the absorbance reading at 405 nm with background correction at 650 nm was measured with a spectrophotometer.

The target of assay [2] is T2, purified and unphosphorylated T315I Abl kinase domain (ABL_T315I_0P) (Mus musculus, UniProt P00520, T315I).
T2 construct: The c-Abl T3151 KD (kinase domain) was purified as follows; Met-Ser-Leu (vector-derived residues) (N); made in house; host or cells: E. coli BL21(DE3) strains (Codon+RIL, or pSA0145 for the lambda phosphatase co-expression plasmid)
T2 sequence (P00520 242-493 T315I limits assumed): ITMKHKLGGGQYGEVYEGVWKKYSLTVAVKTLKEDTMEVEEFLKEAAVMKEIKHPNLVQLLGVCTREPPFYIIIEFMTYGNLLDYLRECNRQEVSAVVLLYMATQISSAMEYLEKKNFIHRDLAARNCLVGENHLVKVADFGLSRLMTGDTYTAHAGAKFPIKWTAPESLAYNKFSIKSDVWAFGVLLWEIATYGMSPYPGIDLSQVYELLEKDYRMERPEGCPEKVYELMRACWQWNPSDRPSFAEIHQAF
The assay is described as follows: c-Abl T315I (unphosphorylated kinase domain) pyruvate kinase/lactate dehydrogenase coupled enzyme assay. The following applies: 10 μM ATP. Type of assay: biochemical. The text has this: Although the first of these examples uses the kinase domain of a mutant form of Abl T315I (“Abl T315I KD”), the kinase assays may use various forms of mutant and wild type enzymes, including, for example, the entire protein, the kinase domain, or a portion thereof (e.g. Abl Y393F). The kinases used in the assays may also be of varying phosphorylation states. In the c-Abl example, a mutant kinase at a zero phosphorylation state was used.
c-Abl Pyruvate Kinase/Lactate Dehydrogenase Coupled Enzyme Assay
In the c-Abl Pyruvate Kinase (PK)/Lactate Dehydrogenase (LDH) Coupled Assay the protein kinase dependant phosphorylation of a substrate peptide was coupled to the oxidation of NADH. The oxidation of NADH to NAD+ was detected by monitoring a decrease in absorbance at 340 nm.
Materials: Abl substrate peptide=EAIYAAPFAKKK-OH (SEQ ID NO: 1) (Biopeptide, San Diego, Calif.); […]NADH (Sigma Cat#N-8129, FW=709.4); 2M MgCl2; 1M HEPES buffer, pH 7.5; Phosphoenolpyruvate (PEP) (Sigma Cat#P-7002, FW=234); Lactate dehydrogenase (LDH) (Worthington Biochemical Cat#2756); Pyruvate Kinase (PK) (Sigma Cat#P-9136); ATP (Sigma Cat#A-3377, FW=551); Greiner 384-well UV star plate; and purified and unphosphorylated T3151 Abl kinase domain.
Stock Solutions: 10 mM NADH (7.09 mg/ml in miliQH2O) made fresh daily; 10 mM Abl substrate peptide (13.4 mg/ml in miliQH2O) stored at −20° C.; 100 mM HEPES buffer, pH 7.5 (5 ml 1M stock+45 ml miliQH2O); 100mM MgCl2 (5 ml 2M MgCl2+95 ml dH2O); 100 mM PEP (23.4 mg/ml in dH2O) stored at −20° C.; 10mM ATP (5.51 mg/ml in dH2O) stored at −20° C. (diluted 50 μl into total of 10 ml miliQH2O daily=50 μM ATP working stock); 1000 U/ml PK (U/mg varies with lot) flash-frozen under liquid N2 and stored at −80° C.; and 1000 U/ml LDH (U/mg varies with lot) flash-frozen under liquid N2 and stored at −80° C.
Standard Assay Setup for 384-well format (50 μl reaction): 300 μM NADH; 10 mM MgCl2; 2 mM PEP; 45 U/ml PK; 60 U/ml LDH; 200 μM Abl substrate peptide; 2.5 μl test compound (in DMSO); 2 μg/ml Abl kinase domain; 10 μM ATP; 100 mM HEPES buffer. Positive controls contained DMSO with no test compound. Negative controls contained 5 μl of 0.5M EDTA (50 mM in the assay). The dephosphorylated form of the c-Abl T315I mutant was used in the biochemical screening assays. The kinase reaction was initiated at time t=0 by the addition of ATP.
Activity was measured by following the time-dependent loss of NADH by absorbance spectroscopy at 340 nm. The linear portion of the resulting progress curve was then analyzed by linear regression to get the activity in absorbance units/time, reported as the slope of that best fit line (moles/unit time can be calculated from using molar extinction coefficient for NADH at 340 nm, 6250M^−1 cm^−1).
Screening data was evaluated using the equation: Z′=1-[3*(σ++σ−)/|μ+−μ−|] (Zhang, et al., 1999 J Biomol Screening 4(2) 67-73), where μ denotes the mean and σ the standard deviation. The subscript designates positive or negative controls. The Z′ score for a robust screening assay should be ≧0.50. The typical threshold=μ+−3*σ+−. Any value that falls below the threshold was designated a “hit”.
Dose response was analyzed using the equation: y=min+{(max−min)/(1+10^[compound]−logIC50)}, where y is the observed initial slope, max=the slope in the absence of inhibitor, min=the slope at infinite inhibitor, and the IC50 is the [compound] that corresponds to ½ the total observed amplitude (Amplitude=max−min).
To measure modulation, activation, or inhibition of Abl KD, a test compound was added to the assay at a range of concentrations. Inhibitors may inhibit Abl KD activity at an IC50 in the micromolar range, the nanomolar range, or, for example, in the subnanomolar range.
An open-reading frame for c-Abl was amplified from a Mus musculus (mouse) cDNA library prepared from freshly harvested mouse liver using a commercially available kit (Invitrogen) by PCR using the following primers: […]
The c-Abl T3151 KD (kinase domain) was purified as follows. […]

Assay [3] has as its target T3, ABL T315I BAF3 cells (Homo sapiens, UniProt P00519, T315I, cells depend on it).
T3 construct: ABL T315I BAF3; fused on or other part: P11274 (Breakpoint cluster region protein)
The assay is described as follows: 96-well XTT cell survival assay, BaF3 ABL T315I. Type of assay: cell-based. Conditions: 72 hours, read-out: CELL BIO ABL T315I BAF3 XTT (IC50). The method, then: as §1, §2, §3
For orientation: Tetrazolium dyes change colour on reduction, which living cells bring about.

Regarding `CN(C)C(=O)C(=O)c1cncc(-c2cnc3[nH]cc(-c4cccc(F)c4F)c3c2Cl)c1` [2-{5-[4-Chloro-3-(2,3-difluoro-phenyl)-1H-pyrrolo[2,3-b]pyridin-5-yl]-pyridin-3-yl}-N,N-dimethyl-2-oxo-acetamide], the GI50 in assay [1] and in assay [3] was over 1000 nM each time. Further, the “ABL_T315I_0P (IC50)” value in assay [2] is “C (0.1-0.01 μM)”.
On to `COc1ccccc1-c1c[nH]c2ncc(-c3cncc(C(O)C(=O)N(C)C)c3)c(O)c12` (stereo not drawn) [2-Hydroxy-2-{5-[4-hydroxy-3-(2-methoxy-phenyl)-1H-pyrrolo[2,3-b]pyridin-5-yl]-pyridin-3-yl}-N,N-dimethyl-acetamide], for which the GI50 in assay [1] and in assay [3] was over 1000 nM in each case. Besides, in assay [2], the “ABL_T315I_0P (IC50)” value is on record as “C (0.1-0.01 μM)”.
Regarding `CN(C)C(=O)C(O)c1cncc(-c2cnc3[nH]cc(-c4ccccc4Cl)c3c2Cl)c1` (stereo not drawn) [2-{5-[4-Chloro-3-(2-chloro-phenyl)-1H-pyrrolo[2,3-b]pyridin-5-yl]-pyridin-3-yl}-2-hydroxy-N,N-dimethyl-acetamide], the GI50 in assay [1] and in assay [3] was 100 to 1000 nM each time. The “ABL_T315I_0P (IC50)” value in assay [2] is “D (<0.01 μM)”.
Regarding `COc1ccccc1-c1c[nH]c2ncc(-c3cncc(C(O)C(=O)N(C)C)c3)c(C(F)(F)F)c12` (stereo not drawn) [2-Hydroxy-2-{5-[3-(2-methoxy-phenyl)-4-trifluoromethyl-1H-pyrrolo[2,3-b]pyridin-5-yl]-pyridin-3-yl}-N,N-dimethyl-acetamide], the GI50 in assay [1] and in assay [3] was 10 to 100 nM throughout. Also, the “ABL_T315I_0P (IC50)” value in assay [2] is on record as “D (<0.01 μM)”.
For the compound `COc1ccccc1-c1c[nH]c2ncc(-c3cncc(C(O)C(=O)N(C)C)c3)c(SC)c12` (stereo not drawn) [2-Hydroxy-2-{5-[3-(2-methoxy-phenyl)-4-methylsulfanyl-1H-pyrrolo[2,3-b]pyridin-5-yl]-pyridin-3-yl}-N,N-dimethyl-acetamide], the results for the GI50 in assay [1] and in assay [3] were 100 to 1000 nM and 10 to 100 nM, respectively. In addition, in assay [2], the “ABL_T315I_0P (IC50)” value is “D (<0.01 μM)”.
Take `CN(C)C(=O)c1cncc(-c2cnc3[nH]cc(-c4ccc(F)cc4F)c3c2Cl)c1` [5-[4-Chloro-3-(2,4-difluoro-phenyl)-1H-pyrrolo[2,3-b]pyridin-5-yl]-N,N-dimethyl-nicotinamide]: the GI50 in assay [1] and in assay [3] was over 1000 nM each time. Besides, the “ABL_T315I_0P (IC50)” value in assay [2] was “C (0.1-0.01 μM)”.
Take `CN(C)C(=O)c1cncc(-c2cnc3[nH]cc(-c4ccc(F)cc4)c3c2Cl)n1` [6-[4-Chloro-3-(4-fluoro-phenyl)-1H-pyrrolo[2,3-b]pyridin-5-yl]-pyrazine-2-carboxylic acid dimethylamide]: the GI50 is 100 to 1000 nM in assay [1] and over 1000 nM in assay [3]. Besides, the “ABL_T315I_0P (IC50)” value in assay [2] is reported as “D (<0.01 μM)”.
In the same order, the values of `COc1ccc(F)cc1-c1c[nH]c2ncc(-c3cnc(N)c(C(=O)N(C)C)c3)c(Cl)c12` [2-Amino-5-[4-chloro-3-(5-fluoro-2-methoxy-phenyl)-1H-pyrrolo[2,3-b]pyridin-5-yl]-N,N-dimethyl-nicotinamide] are under 10 nM, under 10 nM and “D (<0.01 μM)”.
As for `CN(C)C(=O)c1cc(-c2cnc3[nH]cc(-c4cccc(F)c4F)c3c2Cl)cnc1N` [2-Amino-5-[4-chloro-3-(2,3-difluoro-phenyl)-1H-pyrrolo[2,3-b]pyridin-5-yl]-N,N-dimethyl-nicotinamide], the GI50 in assay [1] and in assay [3] was 100 to 1000 nM each time. In assay [2], the “ABL_T315I_0P (IC50)” value is on record as “D (<0.01 μM)”.
Regarding `CN(C)C(=O)c1cc(-c2cnc3[nH]cc(-c4cc(F)ccc4Cl)c3c2Cl)cnc1N` [2-Amino-5-[4-chloro-3-(2-chloro-5-fluoro-phenyl)-1H-pyrrolo[2,3-b]pyridin-5-yl]-N,N-dimethyl-nicotinamide], the GI50 in assay [1] and in assay [3] was 100 to 1000 nM each time. Besides, the “ABL_T315I_0P (IC50)” value in assay [2] is “D (<0.01 μM)”.
Turning to `CNc1ncccc1-c1c[nH]c2ncc(-c3cncc(C(O)C(=O)N(C)C)c3)c(Cl)c12` (stereo not drawn), the GI50 in assay [1] and in assay [3] was over 1000 nM throughout. In addition, in assay [2], the “ABL_T315I_0P (IC50)” value was “C (0.1-0.01 μM)”.
Turning to `COc1ccccc1-c1c[nH]c2ncc(-c3cnc(N)c(C(=O)N4CCOCC4)c3)c(Cl)c12` [{2-Amino-5-[4-chloro-3-(2-methoxy-phenyl)-1H-pyrrolo[2,3-b]pyridin-5-yl]-pyridin-3-yl}-morpholin-4-yl-methanone], the GI50 in assay [1] and in assay [3] was 100 to 1000 nM throughout. In assay [2], the “ABL_T315I_0P (IC50)” value is “D (<0.01 μM)”.
`CNc1c(Br)cnc2[nH]cc(-c3ccccc3OC)c12` [[5-Bromo-3-(2-methoxy-phenyl)-1H-pyrrolo[2,3-b]pyridin-4-yl]-methyl-amine]: the GI50 in assay [1] and in assay [3] was over 1000 nM throughout. The “ABL_T315I_0P (IC50)” value in assay [2] is listed as “C (0.1-0.01 μM)”.
Take `CN(C)C(=O)c1cncc(-c2cnc3[nH]cc(-c4ccccc4F)c3c2Cl)n1` [6-[4-Chloro-3-(2-fluoro-phenyl)-1H-pyrrolo[2,3-b]pyridin-5-y] [6-[4-Chloro-3-(2-fluoro-phenyl)-1H-pyrrolo[2,3-b]pyridin-5-yl]-pyrazine-2-carboxylic acid dimethylamide]: the GI50 in assay [1] and in assay [3] was over 1000 nM throughout. Further, the “ABL_T315I_0P (IC50)” value in assay [2] is reported as “D (<0.01 μM)”.
